Bounds are passed on as bounds.

The record followed here is patent US20220204509A1, “PYRIMIDO FIVE-MEMBERED HETEROCYCLIC COMPOUND AND USE THEREOF AS MUTANT IDH2 INHIBITOR” (EPITAS BIOSCIENCES (SHANGHAI) CO., LTD., priority 2019, published 2022).

In assay [1] the target is T1, IDH2/R140Q (Homo sapiens, UniProt P48735, R140Q).
T1 sequence (P48735 40-452 R140Q): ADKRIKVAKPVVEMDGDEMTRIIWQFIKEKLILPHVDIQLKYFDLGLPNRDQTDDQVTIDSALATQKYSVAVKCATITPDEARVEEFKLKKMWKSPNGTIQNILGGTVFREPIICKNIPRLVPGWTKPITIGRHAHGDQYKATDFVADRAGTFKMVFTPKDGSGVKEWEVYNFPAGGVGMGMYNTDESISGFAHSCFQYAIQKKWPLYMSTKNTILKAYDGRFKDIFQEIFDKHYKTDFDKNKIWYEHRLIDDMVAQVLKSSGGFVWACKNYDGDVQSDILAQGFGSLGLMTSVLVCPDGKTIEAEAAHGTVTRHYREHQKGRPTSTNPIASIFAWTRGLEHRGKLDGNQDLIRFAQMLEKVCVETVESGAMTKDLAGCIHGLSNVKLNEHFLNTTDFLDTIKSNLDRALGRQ
As to the kind of experiment: Inhibition of mutant IDH2 activity at the cell level (extracellular 2-HG, U87MG overexpressing IDH2/R140Q). It counts as cell-based. As to the method:
2-hydroxyglutarate dehydrogenase (2HGDH) can reduce NAD+ to NADH in the presence of 2-HG. The latter can be quantitatively detected by diaphorase and its substrate Resazurin.
The glioma cells U87MG overexpressing IDH2/R140Q mutation were cultured in 1% sodium pyruvate high-sugar MEM, 10% FBS, and placed in a CO2 incubator (37° C., 5% CO2, 95% air) for cultivation.
The cells were digested with trypsin and seeded in a 96-well plate at a density of 1×10^4 with a medium of 200 μL and cultured in a 37° C. incubator overnight. The next day, the test compound was added to a final concentration of 0.1% for DMSO. […] The protein and other components in the medium that may interfere with the results were filtered, and the follow-up method was used to detect the content of 2-HG. 50 uL CellTiter-Glo (purchased from Promega) was added to the 96-well plate with the remaining 100 μL of medium to detect cell survival;
Extracellular 2-HG detecting system:
(1) 50 μL reaction system: reaction buffer (50 mM Tris pH7.5, 100 mM NaCl, 20 mM MgCl2, 0.05% BSA), in which the final concentration of NAD+ was 40 μM, the final concentration of 2HGDH was 20 nM, and the test sample was added to 5 μL of medium; the reaction solution was mixed and centrifuged, and the reaction was carried out for 1 hour at 25° C. in the dark;
Preparation of 2-HG standard curve: a 2-HG stock solution was diluted to 20 μM with reaction buffer, and a 2-fold gradient diluting was performed for a total of 6 points. Afterwards, the above-mentioned 2-HG was measured according to the extracellular 2-HG detecting system, and a standard curve was calculated and drawn.
Calculation of extracellular 2-HG content:
The fluorescence value obtained in the extracellular 2-HG detecting system was calculated using the 2-HG standard curve to calculate the content of 2-HG in the medium, and DMSO was used as a negative control to calculate the compound's inhibition against IDH2/R140Q mutation producing 2-HG activity.

Assay [2] concerns the target T1, IDH2/R140Q. As to the kind of experiment: Determination of the inhibitory activity of the compounds on IDH2/R140Q (NADPH reduction, resazurin/lipoamide dehydrogenase detection). It counts as biochemical. Set-up: purchased Abcam ab198153. As to the method:
In this example, the inhibitory activity of a compound on IDH2/R140Q was determined by measuring the reduction of the cofactor NADPH. The compound was incubated with IDH2/R140Q and NADPH, and then the reaction was initiated by adding α-KG. After a certain time of reaction under linear conditions, lipoamide dehydrogenase and the corresponding substrate resazurin were added for detection. Lipoamide dehydrogenase terminated the IDH2/R140Q reaction bγ subtracting the available cofactor NADPH. It oxidized NADPH to NADP, and reduced resazurin to highly fluorescent resorufin. The production of resorufin was detected to quantify the amount of cofactor NADPH remaining after a specific reaction time.
Then 25 μL of a stop mixed solution (lipoamide dehydrogenase 36 μg/mL, resazurin 30 μM) prepared with the above reaction buffer was added to convert resazurin to resorufin to measure the remaining NADPH. After 10 minutes of incubation at 25° C., the fluorescence value was measured by Tecan […] […] The enzyme activity was measured at 10 concentrations for each compound, and multiple background holes without enzyme and full enzyme activity holes without compound were set up in the reaction. The concentration of dimethyl sulfoxide in the system was less than or equal to 2%. […] The multi-well plate in this example was purchased from Thermo Fisher Scientific, NADPH, α-KG, lipoamide dehydrogenase, and resazurin were purchased from Shenggong Bioengineering Co., Ltd., and IDH2/R140Q was purchased from Abcam (ab198153).

The mark [3] stands for this setting: U87MG overexpressing IDH2/R140Q, 2-HG in medium after 24 hours of culturing with compound, read-out: IC50.
[4] abbreviates: IDH2/R140Q inhibitory activity, cells marked (1 h), read-out: IC50.
Setting [5] is: IDH2/R140Q inhibitory activity, pre-incubated at 25° C. for 16 hours, read-out: IC50.

Turning to `CC(C)n1cnc2c(Nc3ccnc(C(F)(F)F)c3)nc(-c3cccnc3)nc21` [Compound 5, 9-isopropyl-2-(pyridin-3-yl)-N-(2-(trifluoromethyl)pyridin-4-yl)-9H-purin-6-amine], the IC50 in assay [1] (setting [3]) and in assay [2] (setting [4]) was over 10 µM each time.
For the molecule `CC(C)(O)CNc1nc(Nc2ccnc(C(F)(F)F)c2)nc(-c2cccc(C(F)(F)F)n2)n1` [AG-221, Enasidenib, reference compound], the IC50 in assay [1] and in assay [2] was under 0.1 µM each time.
For `Cc1nc2c(Nc3ccccc3)nc(-c3ccccc3)nc2[nH]1` [Compound 14, 8-methyl-N,2-diphenyl-9H-purin-6-amine], the IC50 in assay [1] (setting [3]) and in assay [2] (setting [4]) was over 10 µM in each case.
In the case of `CC(C)n1cnc2c(Nc3ccnc(C(F)(F)F)c3)nc(-c3cccc(C(F)(F)F)n3)nc21` [Compound 4, 9-isopropyl-2-(6-(trifluoromethyl)pyridin-2-yl)-N-(2-(trifluoromethyl)pyridin-4-yl)-9H-purine-6-amine], the half-maximal inhibitory concentration (IC50) in assay [1] (setting [3]) and in assay [2] (setting [4]) was over 10 µM in each case.
`CC(C)Nc1nc(-c2ccccc2)nc2[nH]c(C(F)(F)F)cc12` [Compound 49, N-isopropyl-2-phenyl-6-(trifluoromethyl)-7H-pyrrolo[2,3-d]pyrimidin-4-amine]: the half-maximal inhibitory concentration (IC50) in assay [1] (setting [3]) and in assay [2] (setting [5]) was under 0.1 µM throughout.
In the case of `c1ccc(Nc2nc(-c3ccccc3)nc3[nH]cnc23)cc1` [Compound 6, N,2-diphenyl-9H-purin-6-amine], the half-maximal inhibitory concentration (IC50) in assay [1] (setting [3]) and in assay [2] (setting [4]) was over 10 µM throughout.
With `CC(C)n1cnc2c(Nc3ccnc(C(F)(F)F)c3)nc(-c3ccccc3)nc21` [Compound 3, 9-isopropyl-2-phenyl-N-(2-(trifluoromethyl)pyridin-4-yl)-9H-purin-6-amine], the half-inhibitory concentration (IC50) in assay [1] (setting [3]) and in assay [2] (setting [4]) was over 10 µM each time.
For `Cc1cc2c(Nc3ccnc(C(F)(F)F)c3)nc(-c3ccccc3)nc2[nH]1` [Compound 20, 6-methyl-2-phenyl-N-(2-(trifluoromethyl)pyridin-4-yl)-7H-pyrrolo[2,3-d]pyrimidin-4-amine], the IC50 in assay [1] (setting [3]) lay in the range of 1 to 10 µM; in assay [2] (setting [5]), 0.1 to 1 µM.
As for `CC(C)n1cnc2c(-c3ccccc3)nc(Nc3ccccc3)nc21` [Compound 12, 9-isopropyl-N,6-diphenyl-9H-purin-2-amine], the concentration for half-maximal inhibition (IC50) in assay [1] (setting [3]) and in assay [2] (setting [4]) was over 10 µM in each case.
As to `Cc1cc2c(-c3ccccc3)nc(NC(C)C)nc2[nH]1` [Compound 40, N-isopropyl-6-methyl-4-phenyl-7H-pyrrolo[2,3-d]pyrimidin-2-amine], the concentration for half-maximal inhibition (IC50) in assay [1] (setting [3]) and in assay [2] (setting [5]) was over 10 µM throughout.
Take `Cc1cc2c(NCC(C)C)nc(-c3ccccc3)nc2[nH]1` [Compound 39, N-isobutyl-6-methyl-2-phenyl-7H-pyrrolo[2,3-d]pyrimidin-4-amine]: the IC50 in assay [1] (setting [3]) and in assay [2] (setting [5]) was 0.1 to 1 µM in each case.
With `Cn1cnc2c(Nc3ccccc3)nc(-c3ccccc3)nc21` [Compound 24, 9-methyl-N,2-diphenyl-9H-purin-6-amine], the IC50 in assay [1] (setting [3]) and in assay [2] (setting [5]) was over 10 µM throughout.
For `Cc1cc2c(Nc3ccccc3)nc(-c3ccccc3)nc2[nH]1` [Compound 8, 6-methyl-N,2-diphenyl-7H-pyrrolo[2,3-d]pyrimidin-4-amine], the half-inhibitory concentration (IC50) in assay [1] (setting [3]) lay in the range of 1 to 10 µM; in assay [2] (setting [5]), 0.1 to 1 µM.
In the same order, the values of `Cc1cc2c(NC(C)C)nc(-c3ccccn3)nc2[nH]1` [Compound 16, N-isopropyl-6-methyl-2-(pyridin-2-yl)-7H-pyrrolo[2,3-d]pyrimidin-4-amine] are 1 to 10 µM and over 10 µM.
Consider `Cc1cc2c(NC3CCCC3)nc(-c3ccccc3F)nc2[nH]1` [Compound 51, N-cyclopentyl-2-(2-fluorophenyl)-6-methyl-7H-pyrrolo[2,3-d]pyrimidin-4-amine], for which the IC50 in assay [1] (setting [3]) and in assay [2] (setting [5]) was under 0.1 µM in each case.
As to `Cc1cc2c(NC3CC3)nc(-c3ccc(F)cc3)nc2[nH]1` [Compound 38, N-cyclopropyl-2-(4-fluorophenyl)-6-methyl-7H-pyrrolo[2,3-d]pyrimidin-4-amine], the IC50 in assay [1] (setting [3]) and in assay [2] (setting [5]) was 1 to 10 µM throughout.
On to `Cc1cc2c(NC3CC3)nc(-c3ccccc3C)nc2[nH]1` [Compound 43, N-cyclopropyl-6-methyl-2-(o-tolyl)-7H-pyrrolo[2,3-d]pyrimidin-4-amine], for which the IC50 in assay [1] (setting [3]) was in the range of 0.1 to 1 µM; in assay [2] (setting [5]), 1 to 10 µM.
As for `Cc1cc2c(Nc3ccccc3)nc(-c3ccccc3F)nc2[nH]1` [Compound 50, 2-(2-fluorophenyl)-6-methyl-N-phenyl-7H-pyrrolo[2,3-d]pyrimidin-4-amine], the IC50 in assay [1] (setting [3]) and in assay [2] (setting [5]) was 0.1 to 1 µM throughout.
Regarding `Cc1cc2c(Nc3cccc(Cl)c3)nc(-c3ccccc3)nc2[nH]1` [Compound 41, N-(3-chlorophenyl)-6-methyl-2-phenyl-7H-pyrrolo[2,3-d]pyrimidin-4-amine], the half-maximal inhibitory concentration (IC50) in assay [1] (setting [3]) and in assay [2] (setting [5]) was 1 to 10 µM in each case.
